Measurements published in patent US20210340629A1, “BIOMARKERS FOR CANCER THERAPY” (The Council of the Queensland Institute of Medical Research, priority 2018, published 2021).

What was measured:
D20 melanoma cells = assay: In vivo tumor growth analysis, D20 melanoma xenograft; set-up: species or system SCID mice; details: 5 mg/kg every two days for two weeks, vs vehicle control
Method: To determine the effect of inhibiting G9a on tumor growth, 6-8 week old SCID mice were subcutaneously injected with D20 BRAF mutant cutaneous melanoma cells. Palpable tumors were allowed to establish (approx. 10 days) before UNC0642 was administered at 5 mg/kg every two days for two weeks. The D20 cell line was used in the subcutaneous model as it had been shown previously to be tumorigenic in vivo and was also sensitive to the drug in vitro.
Groups of 8 SCID mice per treatment group were used for xenograft studies to ensure adequate power to detect biological differences. All experiments were approved by the QIMR Berghofer Medical Research Institute Animal Ethics Committee. D20 melanoma cells (2×106) were mixed 1:1 ratio with Growth factor-reduced Matrigel (BD Biosciences) and injected subcutaneously into the flank of 6-8 week old mice in 100 μL volume (day 0) and treatments, either DMSO or UNC0642 at 5 mg/kg were administered as indicated in the figure legends. Tumor volumes (width2×length/2) were measured using a digital calliper, and presented as mean±SD. All animals were sacrificed at the same time and the tumors were dissected for further analysis.

LC3B = assay: EGFP-LC3B immunofluorescence analysis (punctate pattern); assay type: cell-based, human; details: D05 and C092 cell lines, 5 μM, 8 hours, data not shown
Method: Retroviral constructs expressing short hairpin RNA to G9a (shG9a) or a non-silencing control (shNS) were used as previously described (Casciello et al. (2017) Proc Natl Acad Sci USA 114, 7077-7082). pBABE-puro mCherry-EGFP-LC3B was obtained from Addgene (plasmid #22418) (N'Diaye et al. (2009) EMBO reports 10, 173-179). The viral supernatants were prepared by co-transfecting the constructs with pUMVC3 and pVSV-G into HEK293T cells using Superfect transfection reagent (Qiagen). The supernatants were harvested and used to infect cells in medium, which contained 8 μg/ml polybrene. Cell medium was replaced and fresh growth medium was added after 24 h. Cells were harvested 72 h later or selected using 1 μg/ml of Puromycin sulfate.
Stable cells expressing EGFP-LC3B construct were treated with DMSO, UNC0642 at 5 μM or 20 nM Bafilomycin A1 (Sigma Aldrich) for 8 hours. Images were taken with an EVOS FL auto fluorescent microscope (Invitrogen) and quantitated using ImageJ software.

melanoma cell lines = assay: Cell viability by MTT assay, melanoma cell lines; assay type: cell-based, human; details: 5 μM, 48 hours, vs vehicle (DMSO), FIG. 2
Method: UNC0642 was purchased from Sigma Aldrich. The panel of human melanoma cell lines, derived from cutaneous melanomas, is shown in Table 1 and the cells have all been previously described. Cells were maintained in Roswell Park Memorial Institute (RPMI) 1640 supplemented with 10% fetal bovine serum (FBS), 100 U/mL penicillin, and 100 µg/mL streptomycin in a humidified atmosphere of 5% CO2 at 37° C. Normal melanocytes were grown in Clonetics™ MGM™-4 Melanocyte Growth Medium-4 supplemented with CaCl2, phorbol-12-myristate 13-acetate (PMA), recombinant human fibroblast growth factor basic (rhFGF-B), recombinant human insulin (rh-insulin), hydrocortisone, bovine pituitary extract (BPE), FBS and GA-1000 (30 μg/ml Gentamycin and 15 ng/ml Amphotericin) (Lonza).
For proliferation studies, cells (5×10^3) were seeded in 96-place wells and allowed to adhere overnight, and incubated in fresh growth medium in the presence of either the G9a inhibitor UNC0642 (Sigma Aldrich) or the vehicle control DMSO (Sigma Aldrich). Proliferation was evaluated via real-time imaging using IncuCyte Zoom (Essen BioScience) and/or by performing a 3-(4,5-dimethylthiazol-2-yl)-2,5-diphenyltetrazolium bromide ([…]) assay. After monitoring the cells, 20 μL of MTT (5 mg/mL; Sigma-Aldrich) was added. […] The absorbance value (optical density) of each well was measured at 570 nm.

C092 cell line = assay: Cell viability of C092 with LC3B knock down following G9a inhibitor treatment; assay type: cell-based, human; details: data not shown
Source text: Therefore, the basal levels of important autophagy related proteins were examined in the melanoma cell lines used in this study. It is has been shown that the inhibition of G9a can cause an induction of the autophagy-related gene 5 (ATG5), Beclin-1 (known also as ATG6) and the conversion of microtubule-associated protein 1 light chain 3 beta (MAP1LC3B or LC3B for short) I (17 KDa) to LCB3 II (15 KDa) through proteolytic cleavage and lipidation (de Narvajas et al. (2013) and Li et a. (2015). These changes are considered a hallmark of mammalian autophagy. When cells undergo autophagy, conversion of a fraction of cytoplasmic LC3B Ito autophagic membrane form LC3B II can be detected by western blot or by immunofluorescence. This conversion correlates with autophagic activity (Kabeya et al (2000) Embo J 19, 5720-5728), therefore the levels of LC3B II can be considered a reliable marker of autophagy. […] To assess whether lowering LC3B levels in the C092 non-responsive cell line would allow increased sensitivity to the G9a inhibitor treatment, cell viability of C092 following G9a inhibitor treatment was assessed.

[1] = tested on: D05 and C092 melanoma cell lines; assay: Cell cycle analysis (flow cytometric analysis); assay type: cell-based, human; details: data not shown

COc1cc2c(NC3CCN(C(C)C)CC3)nc(N3CCC(F)(F)CC3)nc2cc1OCCCN1CCCC1 [UNC0642]
tumor weight (D20 melanoma cells; end-point, P<0.01, FIG. 10B): statistically significantly reduced
tumor growth (D20 melanoma cells; intraperitoneally, P<0.05, FIG. 10A): statistically significantly reduced
distribution of EGFP-LC3B (punctate pattern) (LC3B): increase in punctate pattern
Cell survival (cell viability, MTT assay) (melanoma cell lines): significantly attenuated
cell viability following G9a inhibitor treatment (C092 cell line): significantly reduced
increase in preG1 population ([1]; C092 (less G9a inhibitor responsive) cell line): absent
cell cycle status ([1]; D05 and C092, flow cytometric analysis): neither D05 nor C092 showed any changes in cell cycle status
increase in cells in preG1 phase ([1]; G9a inhibitor responsive cells (D05)): greater than 4 fold
cells in both G1 and G2/M phases [1]: reduction
